Assays:
[1] = PPB (compound bound to proteins); settings: plasma
[2] = tested on: hippocampal CA1 pyramidal neurones; assay: Whole cell recording of EPSC amplitude in hippocampal slices; type: cell-based, male Sprague-Dawley rats
Procedure: The stimulatory activity of the compounds of the invention on the central nervous system was evaluated in-vitro by recording the excitatory postsynaptic current (EPSC) amplitude in stimulated hippocampal CA1 pyramidal neurones from slices of male Sprague-Dawley rats, as described in more detail hereinafter in the Experimental and Preparations section.
Male Sprague-Dawley rats, 15 to 20 days old at the time of surgery, were used in this study. On the day of the experiment, animals were terminally anaesthetized using isofluorane, cervically dislocated, and decapitated. The brain was removed and 400 μm thick parasagittal brain slices prepared using a Leica VT1000S. Slices were maintained in an artificial cerebrospinal fluid (ACSF) of the following composition (in mM, aqueous solution): 127 NaCl; 1.9 KCl; 1.2 KH2PO4; 2.4 CaCl2; 1.3 MgCl2; 26 NaHCO3; and, 10 D-glucose, bubbled with a mixture of 95% O2/5% CO2, at room temperature for 1 hour after slicing before commencing electrophysiological recordings. […]

[3] = tested on: cryopreserved beagle dog hepatocytes; assay: Metabolic stability in cryopreserved beagle dog hepatocytes; type: in vitro ADME; settings: Example 2 versus tianeptine
Procedure: (§1) The metabolic stability of the compounds of the invention was evaluated in-vitro using cryopreserved beagle dog hepatocytes, as described in more detail hereinafter in the Experimental and Preparations section.
(§2) The test compound (1 μM) was incubated with cryopreserved beagle dog hepatocytes at 3 million cells per ml, in 300 μL of Leibovitz's medium for a total period of 90 min. During this period, 25 μL aliquots were taken at 1, 10, 30, 50, 70 & 90 minutes and quenched in acetonitrile. Quenched samples were centrifuged to pellet the precipitated protein, and supernatant removed for LC-MS-MS (high performance liquid chromatography coupled to a tandem mass spectrometer) analysis to quantify the amount of the parent test compound remaining. The first order elimination rate constant (k) was determined from a plot of natural log of parent test compound remaining versus time, and used to calculate a metabolic stability half-life (T1/2), where T1/2=Ln2/k where k=elimination rate constant.

[4] = as above; type: in vitro ADME; settings: beagle, dog, cryopreserved hepatocytes, test compound 1 μM, 3 million cells per ml, 90 min incubation
Procedure: as §1, §2

In the case of `CN1c2ccccc2C(NCCCCOCC(=O)O)c2ccc(Cl)cc2S1(=O)=O` (stereo not drawn) [Example 2, 2-(4-((3-chloro-6-methyl-5,5-dioxido-6,11-dihydrodibenzo[c,f][1,2]thiazepin-11-yl)amino)butoxy)acetic acid], the fraction unbound [1] was 0.18, the “increase of control EPSC amplitude” value ([2]; 10 μM bath applied, percentage of the control, mean±S.E.M (n=6)) was 224.67±34.27% and the “effect on excitatory transmission in CA1 region of hippocampus (FIG. 1)” value ([2]; representative electrophysiological recording, 10 μM) was “facilitates excitatory transmission”. For the same compound, the “metabolic stability half life compared with tianeptine” value [3] was “more than 10 times”, the half-life at 1 μM ([4]; T1/2=Ln2/k) was 34.4 h and the hepatocyte CLint at 1 μM ([4]; read-out: Clint (intrinsic clearance)) was 0.3 µL/min/1e6 cells.
